Test results from patent US20260069693A1, “UROLITHINS AND T-CELL MEDIATED IMMUNE RESPONSE” (priority 2022, published 2026).

Key:
[1] = system: APTK-OVA tumors; assay: adoptive transfer of UA-conditioned OT-1 T cells into mice bearing APTK-OVA tumors; type: in vivo, Rag1^−/− mice
Description: Adoptive cell transfer (ACT) represents the infusion of antigen-specific leukocytes with direct antitumor activity, yet identification, selection and expansion of lymphocyte subsets harboring optimal antitumor qualities remains one of the most crucial challenges (Rosenberg and Restifo, 2015). ACT benefits especially from minimally differentiated cells due to their improved survival and long-term potential to generate unexhausted effector cells (Luca Gattinoni et al; Mo et al., 2021; Roberto et al., 2015). In particular, CD8^+ T cells restricted in a stem-like state have been associated with enhanced tumor suppressive properties upon adoptive cell transfer (Enrico Lugli et al; Verma et al., 2021). […] The inventors cultured T cells from OT-1 donor mice (FIG. 3A) for 48 hours in the presence of UA or vehicle control, followed by adoptive transfer into immunodeficient Rag1^−/− mice. […] Moreover, consistent with an improved memory response, animals receiving UA-pretreated T cells contained less Tim3^HiPD1^Hi terminally exhausted CD8^+ T cells in the TME (FIG. 3I). Thus, UA augments immune-mediated antitumor memory upon adoptive cell transfer.
For adoptive cell transfer transfer, purified splenic T cell from OT1 mice were isolated and activated using aCD3/aCD28 stimulation beads for 48 h. After magnetic bead removal, 1×10^6 T of activated T cell were intravenously injected into Rag1^−/− recipients. To study survival of transferred T cells, stimulated OT-1 T cells were injected into mice without tumors. Subsequently, after 7 days, spleens were isolated and splenocytes were stained for the CD8^+ subsets as described below. To understand antitumor immunity conferred by transferred OT-1 lymphocytes, cells were injected into mice carrying APTK-OVA tumors 10 days after subcutaneous organoid transplantation. Tumor growth was assessed as described above. Mice were kept under regular chow food for the T cell adoptive transfer experiment and sacrificed collectively when maximum tumor diameter extended 1.5 cm.
Tumors were minced and digested with Tumor & Tissue Dissociation Reagent (BD Horizon) for 30 min. The remaining organ pieces were filtered through a 70 μm cell strainer. Cells were then washed with PBS 1% BSA and 2 mM EDTA. Immune cells were enriched on a 30%/40%/75% Percoll gradient after a 1700 rpm 17 min centrifugation. […]

[2] = system: Nalm-6 cells; assay: CD19-CAR T cell killing assay; type: cell-based, human; conditions: 24 h co-culture, CAR T cells generated with UA vs DMSO
Description: The cytotoxic activity of CD19-CAR T cells generated in presence or absence of UA was determined by CD19-positive Nalm-6 cell killing. Three days post transduction, CAR expression was determined and normalized to equal CAR T cell levels. Cells were washed twice and 0.5×10^4 CAR T cells were seeded into NutriT medium without cytokines, UA or DMSO. Nalm-6 cells were labeled using CellTrace™ Violet (CTV; Thermo Fisher Scientific, C34557) following manufacturer's instructions and 1×10^4 labeled Nalm-6 cells were added to the CAR T cells (0.5:1 effector to target ratio). The amount of dead target cells was determined via flow cytometry 24 h after start of killing.

[3] = system: APTK-s.c. tumors; assay: subcutaneous APTK tumors in Rag1-/- mice, UA diet; conditions: absence of mature T and B cells; UA-containing vs control food
[4] = UA-T cell transfer vs DMSO treated OT-I T cells

SMILES: O=c1oc2cc(O)ccc2c2ccc(O)cc12 [UA, Urolithin A]
- CD62L expression in CD8+ TIL [1, 4]: remained unchanged
- expression of CD44 in CD8+ TIL [1, 4]: lower expression
- number of TCF1Hi CD8+ tumor infiltrating T cells [1, 4]: higher number
- tumor suppression (growth, final tumor weight) ([1]; UA-conditioned (25 μM, 48 h) vs control OT-I T cells): more substantial tumor suppression
- Tim3HiPD1Hi terminally exhausted CD8+ T cells in the TME ([1]; UA-pretreated vs DMSO treated OT-I T cells): less
- CD19 CAR-T cell mediated killing of NALM-6 leukemia cells [2]: did not have a negative impact
- tumor growth (protective effect of UA) [3]: abrogated the protective effect of UA
